Results published in patent US20120071522A1, “THERMAL STABILIZATION OF BIOCIDES IN MATRIX COMPOSITIONS PROCESSED AT ELEVATED TEMPERATURES” (priority 2004, published 2012).

Experiment: Thermal stability (color change) of biocide in polyethylene and wood-plastic composite matrixes processed at elevated temperatures
Assay type: physicochemical

Structure (SMILES)	color change
O=C1c2ccccc2C(=O)N1SC(Cl)(Cl)Cl [Fungitrol® 11, N-(trichloromethylthio) phthalimide]	no color change
CCCCNC(=O)OCC#CI [IPBC]	no color change
